For one assay, the target named is T1, CSF-1R (Homo sapiens, UniProt P07333).
T1 construct: purchased Invitrogen PV3249
Briefly: CSF-1R kinase assay (HTRF kinEASE TK). It counts as biochemical. Conditions: ATP 2.5 uM, enzyme 0.012 ng/ul, read-out: In vitro inhibitory activity of CSF-1R IC50. As for the experimental part: Example 53: CSF-1R Kinase Assay
I. Materials and Instruments
• 2104 EnVision® Multilabel Reader (PerkinElmer) • OptiPlate-384, White Opaque 384-well MicroPlate (Cat.6007290, PerkinElmer) • HTRF kinEASE TK (Cat.62TKOPEC, Cisbio) • CSF-1R(Cat. PV3249, Invitrogen) • ATP 10 mM (Cat. PV3227, Invitrogen) • DTT 1 M (Cat. D5545, Sigma) • MgCl2 1 M (Cat. M8266, Sigma) • MnCl2 1 M (Cat.244589. Sigma)
II. Experimental Procedure
Substrate-TK and ATP were diluted to 5 times of the reaction concentration by 1×Kinase Buffer. CSF1R enzyme was diluted to 5×enzyme solution by 1×kinase buffer. Sa-XL665 was diluted to 4×Sa-XL665 solution by Detection Buffer. 100×TK-Ab-Cryptate Solution TK-Ab-Cryptate was diluted to 100×TK-Ab-Cryptate solution by Detection Buffer. 2. Experimental Procedure After all reagents had been prepared according to the above method, except enzymes, the sample was added after equilibrium to room temperature. • a. Firstly, 2.5% DMSO solution was prepared by using 1×kinase buffer (the high concentration of DMSO will affect the reaction and control the final concentration of DMSO to 1%). Then the compounds were diluted by 2.5% DMSO solution corresponding to the enzyme. The screening concentration of the compounds was 4 times gradient dilution from 1000 nM, and 8 concentrations. In addition to the control pore, 4 microlitres of diluted solution containing 2.5% DMSO were added to the reaction pore and 4 microlitres of previously prepared solution containing 2.5% DMSO were added to the control pore. • b. 2 microlitres of previously prepared TK-biotin substrate solution was added to all reaction pore (the amount of substrate used for enzyme screening is shown in Table 15). • c. Adding 2 microlitres of CSF1R enzyme solution of corresponding concentration (the amount of enzyme is shown in Table 15) to all reaction pore except negative pore. The negative pore is supplemented with 2 microlitres of enzyme corresponding to 1 xkinase buffer. After mixing, the compound and enzyme can be fully combined by incubating at room temperature for 10 minutes. • d. Enzyme reaction was initiated by adding 2 microlitres ATP solution of corresponding concentration to all reaction pore. The reaction time was 30 minutes (the corresponding ATP concentration and reaction time at enzyme screening were shown in Table 15). • e. Preparing the test solution 5 minutes before the end of kinase reaction. Streptavidin-XL665 and TK antibody europium cryptate (1:100) were prepared with detection buffer in the kit (the corresponding concentration of detection reagent for enzyme screening is shown in Table 15). • f. After the kinase reaction, 5 microlitres of diluted Streptavidin-XL665 were added to all reaction pore, mixing, and then the diluted TK antibody europium cryptate solution was added immediately. • g. After 1 hour reaction at room temperature, the fluorescence signals (320 nm stimulation, 665 nm, 615 nm emission) were detected by ENVISION (Perkinelmer) instrument. The inhibition rate of each pore was calculated by full active pore and background signal pore, and the average value of complex pore was obtained. Meanwhile, the half inhibitory activity (IC50) of each compound was fitted by professional drawing analysis software PRISM 5.0. The Flow Chart of the Experiment is as Follows:
3. Data Analysis Emission Ratio (ER)=665 nm Emission signal/615 nm Emission signal Inhibitory rate=(ERpositive−ERsample)/(ERpositive−ERnegative)*100% Using Graphpad Prism 5 and log (inhibitor) vs. normalized response to fit IC50 curve and calculate IC50 value. The IC50 data of the compounds prepared in Representative Examples 3-52 are as follows (Table 18): […]
(In general: In TR-FRET formats the signal depends on donor and acceptor labels being close together.)

The next assay concerns NFS-60 cells. Briefly: NFS-60 cell assay (CCK proliferation, M-CSF stimulated). It counts as cell-based. Conditions: Mus musculus, compound 0.5 uM, 72 h, 40 ng/mL M-CSF, read-out: inhibition ratio % (NFS-60 cell proliferation). As for the experimental part: Example 54: NFS-60 Cell Assay
1. Experimental Materials
Mouse Myelogenous Leukemia Cells (NFS-60)
Using DMSO to dissolve, and the required concentration was prepared with full culture medium without factors.
Penicillin-streptomycin: TRANS
Mouse M-CSF/CSF-1 Protein: Sino Biological Inc, No. 51112-MNAH
M-CSF: Qilu Pharmaceutical co., Ltd.
The logarithmic growth phase of NFS-60 cells (1640+10% FBS+40 ng/ml M-CSF+1% Penicillin-streptomycin) were centrifuged (1000 r/min) and cultured in a factor-free medium at 37° C., 5% CO2 for 24 hours. Centrifugating (1000 r/min), the culture medium was replaced by new culture medium including 40 ng/mL factors, and inoculated on 96-well plate by 2*10^4 cells/mL, 100 μL/hole. After 16 hours, the tested compounds were added 10 μL/hole, 3 duplicate holes per compound, 37° C., 5% CO2, continue to cultured for 72 h. Then 10 μL CCK reagent was added to each hole. After incubation for 4 hours, the absorbance of each hole was measured at 450 nm wavelength. According to Formula: Inhibitory rate (%)=(1-OD value of test pore/OD value of solvent control pore)×100% 3. Experimental Results The experimental results of the inhibition of NFS-60 cell proliferation by the compounds prepared in Example 3-52, 0.5 uM, are shown in the following table: […]

Where only a bound is given, the exact number is not on record here.

T1 sequence (P07333 20-972): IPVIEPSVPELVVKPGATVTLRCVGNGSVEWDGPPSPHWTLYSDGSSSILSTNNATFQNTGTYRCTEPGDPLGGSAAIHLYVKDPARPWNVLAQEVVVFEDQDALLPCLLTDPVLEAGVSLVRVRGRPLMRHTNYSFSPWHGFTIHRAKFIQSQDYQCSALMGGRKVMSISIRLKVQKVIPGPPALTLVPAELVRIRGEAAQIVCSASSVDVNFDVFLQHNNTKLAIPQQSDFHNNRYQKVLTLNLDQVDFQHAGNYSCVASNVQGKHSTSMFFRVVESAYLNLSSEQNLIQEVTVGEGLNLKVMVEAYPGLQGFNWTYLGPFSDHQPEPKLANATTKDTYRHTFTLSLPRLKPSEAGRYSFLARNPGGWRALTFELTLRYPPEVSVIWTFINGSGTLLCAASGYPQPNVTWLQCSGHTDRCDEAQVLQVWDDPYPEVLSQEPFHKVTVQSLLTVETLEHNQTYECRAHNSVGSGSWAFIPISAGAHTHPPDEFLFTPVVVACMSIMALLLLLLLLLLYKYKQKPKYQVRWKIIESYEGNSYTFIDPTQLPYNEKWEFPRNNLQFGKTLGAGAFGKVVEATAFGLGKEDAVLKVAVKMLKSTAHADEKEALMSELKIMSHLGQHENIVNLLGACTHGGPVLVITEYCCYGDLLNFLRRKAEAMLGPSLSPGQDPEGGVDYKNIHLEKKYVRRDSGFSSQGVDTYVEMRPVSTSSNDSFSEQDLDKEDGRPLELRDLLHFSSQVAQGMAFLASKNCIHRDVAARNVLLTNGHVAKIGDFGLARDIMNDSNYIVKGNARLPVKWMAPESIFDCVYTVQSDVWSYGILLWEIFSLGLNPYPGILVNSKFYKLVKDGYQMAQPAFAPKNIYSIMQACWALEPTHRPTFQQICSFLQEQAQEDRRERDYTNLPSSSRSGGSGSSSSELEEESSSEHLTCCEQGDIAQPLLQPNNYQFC

For the molecule `Cc1ccc(Cl)c(C(=O)Nc2cccc([C@@H](C)Oc3cc(Cl)cnc3N)c2)c1` [Compound 73, (R)-N-(3-(1-((2-amino-5-chloropyridin-3-yl)oxy)ethyl)-phenyl)-2-chloro-5-methylbenzamide], the IC50 (usually the midpoint of a concentration-inhibition curve) on CSF-1R is not above 50 nM.
Regarding `C[C@@H](Oc1cc(-c2cnn(C)c2)cnc1N)c1cccc(NC(=O)c2ccc3c(c2)CCC3)c1` [Compound 188, (R)-N-(3-(1-((2-amino-5-(1-methyl-1H-pyrazol-4-yl)pyridin-3-yl)oxy)ethyl)phenyl)-2,3-dihydro-1H-indene-5-carboxamide], the IC50 at CSF-1R is not above 50 nM.
For `Cc1cccc(C(=O)Nc2ccc(Cl)c([C@@H](C)Oc3cc(Cl)cnc3N)c2)c1Cl` [Compound 95, (R)-N-(3-(1-((2-amino-5-chloropyridin-3-yl)oxy)ethyl)-4-chlorophenyl)-2-chloro-3-methylbenzamide], the IC50 on CSF-1R was 51 to 500 nM.
Consider `COc1cccc(C(=O)Nc2cc(C(C)Oc3cc(Cl)cnc3N)ccc2F)c1` (centres unmarked) [Compound 318, N-(5-(1-((2-amino-5-chloropyridin-3-yl)oxy)ethyl)-2-fluorophenyl)-3-methoxybenzamide], for which the IC50 at CSF-1R lay within 51 to 500 nM.
Consider `Cc1cccc(C(=O)Nc2cccc([C@H](C)Oc3cc(Cl)cnc3N)c2)c1Cl` [Compound 64, (S)-N-(3-(1-((2-amino-5-chloropyridin-3-yl)oxy)ethyl)-phenyl)-2-chloro-3-methylbenzamide], for which the IC50 at CSF-1R is not above 50 nM.
Turning to `Cc1cccc(C(=O)Nc2cccc([C@@H](C)Oc3cc(Cl)cnc3N)n2)c1` [Compound 141, (R)-N-(6-(1-((2-amino-5-chloropyridin-3-yl)oxy)ethyl)-pyridin-2-yl)-3-methylbenzamide], at CSF-1R, the IC50 lay within 51 to 500 nM.
On the same count and under the same terms, next, `Cc1cccc(C(=O)Nc2cccc([C@@H](C)Oc3cncc(Cl)c3)c2)c1` [Compound 323, (R)—N-(3-(1-((5-chloropyridin-3-yl)oxy)ethyl)phenyl)-3-methylbenzamide]: 51 to 500 nM; `Nc1ncc(Cl)cc1OCc1cccc(NC(=O)c2cccc(Cl)c2)c1` [Compound 22, N-(3-(((2-amino-5-chloropyridin-3-yl)oxy)methyl)phenyl)-3-chloro-benzamide]: not above 50 nM; `C[C@@H](Oc1cc(-c2cnn(C)c2)cnc1N)c1cccc(NC(=O)c2cccc(C3CC3)c2)c1` [Compound 174, (R)-N-(3-(1-((2-amino-5-(1-methyl-1H-pyrazol-4-yl)pyridin-3-yl)oxy)ethyl)phenyl)-cyclopropylbenzamide]: not above 50 nM.
With `C[C@H](Oc1cc(Cl)cnc1N)c1cccc(NC(=O)c2cccc(C3CC3)c2)c1` [Compound 70, (S)-N-(3-(1-((2-amino-5-chloropyridin-3-yl)oxy)ethyl)-phenyl)-3-cyclopropylbenzamide], the inhibition at 0.5 µM with NFS-60 cells was not below 50%.
Turning to `Cc1cccc(C(=O)Nc2cccc([C@@H](C)Oc3cc(-c4cccnc4)cnc3N)c2)c1` [Compound 202, (R)-N-(3-(1-((6-amino-[3,3′-bipyridin]-5-yl)oxy)ethyl)phenyl)-3-methylbenzamide], the IC50 on CSF-1R is not above 50 nM.
For `Cc1cccc(NC(=O)c2cccc([C@H](C)Oc3cc(Cl)cnc3N)c2)c1` [Compound 222, (S)-3-(1-((2-amino-5-chloropyridin-3-yl)oxy)ethyl)-N-(m-tolyl)benzamide], on CSF-1R, the IC50 was 51 to 500 nM.
Take `Cc1cccc(C(=O)Nc2cccc(Oc3cc(Cl)cnc3N)c2)c1` [Compound 305, N-(3-((2-amino-5-chloropyridin-3-yl)oxy)phenyl)-3-methyl-benzamide]: on CSF-1R, the IC50 fell in the range of 51 to 500 nM.
Turning to `C[C@@H](Oc1cc(-c2cnn(C)c2)cnc1N)c1cccc(NC(=O)c2ccc(C(F)(F)F)c(S(C)(=O)=O)c2)c1` [Compound 175, (R)-N-(3-(1-((2-amino-5-(1-methyl-1H-pyrazol-4-yl)pyridin-3-yl)oxy)ethyl)phenyl)-3-(methylsulfonyl)-4-(trifluoromethyl)benzamide], the IC50 at CSF-1R was not above 50 nM.
As for `Cc1cccc(NC(=O)Nc2cccc(Oc3cc(Cl)cnc3N)c2)c1` [Compound 331, 1-(3-((2-amino-5-chloropyridin-3-yl)oxy)phenyl)-3-(m-tolyl)urea], the IC50 at CSF-1R was in the range of 51 to 500 nM.
Still for that read-out and setting: next, `C[C@@H](Oc1cncc(Cl)n1)c1cccc(NC(=O)c2cccc(C(F)(F)F)c2)c1` [Compound 327, (R)—N-(3-(1-((6-chloropyrazin-2-yl)oxy)ethyl)phenyl)-3-(trifluoromethyl)benzamide]: 51 to 500 nM.
As for `Cn1cc(-c2cnc(N)c(Oc3cccc(NC(=O)Nc4ccc(Cl)c(C(F)(F)F)c4)c3)c2)cn1` [Compound 348, 1-(3-((2-amino-5-(1-methyl-1H-pyrazol-4-yl)pyridin-3-yl)oxy)phenyl)-3-(4-chloro-3-(trifluoromethyl)phenyl)urea], the concentration for half-maximal inhibition (IC50) at CSF-1R is not above 50 nM.
The same measure, in the same setting: to `C[C@H](Oc1cc(Cl)cnc1N)c1cccc(NC(=O)c2cccc(Cl)c2)c1` [Compound 55, (S)-N-(3-(1-((2-amino-5-chloropyridin-3-yl)oxy)ethyl)-phenyl)-3-chlorobenzamide] belongs not above 50 nM; to `Cc1cc(C)cc(C(=O)Nc2cccc([C@@H](C)Oc3cc(-c4cnn(C)c4)cnc3N)c2)c1` [Compound 171, (R)-N-(3-(1-((2-amino-5-(1-methyl-1H-pyrazol-4-yl)pyridin-3-yl)oxy)ethyl)phenyl)-3,5-dimethyl benzamide], not above 50 nM.
For the molecule `CNc1ncc(Cl)cc1OCc1cccc(NC(=O)c2cccc(C)c2)c1` [Compound 236, N-(3-(((5-chloro-2-(methylamino)pyridin-3-yl)oxy)methyl)phenyl)-3-methylbenzamide], the IC50 on CSF-1R was in the range of 51 to 500 nM.
Same read-out and setting: next, `Cc1ccc(C(=O)Nc2cccc([C@@H](C)Oc3cc(-c4cnn(C)c4)cnc3N)c2)cc1C` [Compound 170, (R)-N-(3-(1-((2-amino-5-(1-methyl-1H-pyrazol-4-yl)pyridin-3-yl)oxy)ethyl)phenyl)-3,4-dimethyl benzamide]: not above 50 nM; `CC(C)c1cccc(C(=O)Nc2cccc([C@@H](C)Oc3cc(-c4cnn(C)c4)cnc3N)c2)c1` [Compound 187, (R)-N-(3-(1-((2-amino-5-(1-methyl-1H-pyrazol-4-yl)pyridin-3-yl)oxy)ethyl)phenyl)-3-isopropylbenzamide]: not above 50 nM.
As for `C[C@@H](Oc1cc(Cl)cnc1N)c1cccc(NC(=O)c2cccc(CN3CCN(C)CC3)c2)c1` [Compound 103, (R)-N-(3-(1-((2-amino-5-chloropyridin-3-yl)oxy)ethyl)-phenyl)-3-((4-methylpiperazin-1-yl)methyl)benzamide], at CSF-1R, the concentration for half-maximal inhibition (IC50) lay in the range of 500 to 10000 nM.

The values are drawn from patent US11767296B2, “Heteroaryl compounds as kinase inhibitor” (FUJIAN HAIXI PHARMACEUTICALS CO., LTD, priority 2018, dated 2023).
